The record followed here is ChEMBL document CHEMBL5036317, “Identification of Unique Quinazolone Thiazoles as Novel Structural Scaffolds for Potential Gram-Negative Bacterial Conquerors” (J Med Chem, 2021).

In data set [1] the test system is Pseudomonas aeruginosa. Nature of the data set: Antibacterial activity against Pseudomonas aeruginosa ATCC 27853 assessed as inhibition of bacterial growth measured after 24 hrs by two-fold serial dilution method. The data set is classed as functional.
The test system of data set [2] is Escherichia coli. The experiment in a line: Antibacterial activity against Escherichia coli assessed as inhibition of bacterial growth measured after 24 hrs by two-fold serial dilution method. The data set is classed as functional.
In data set [3] the test system is Staphylococcus aureus. Nature of the data set: Antibacterial activity against methicillin-resistant Staphylococcus aureus assessed as inhibition of bacterial growth measured after 24 hrs by two-fold serial dilution method. The data set is classed as functional.
Data set [4] deals with Pseudomonas aeruginosa. Nature of the data set: Antibacterial activity against Pseudomonas aeruginosa assessed as inhibition of bacterial growth measured after 24 hrs by two-fold serial dilution method. The data set is classed as functional.
Data set [5] has as its system Staphylococcus aureus. The experiment in a line: Antibacterial activity against Staphylococcus aureus ATCC 25923 assessed as inhibition of bacterial growth measured after 24 hrs by two-fold serial dilution method. The data set is classed as functional.
The test system of a further data set is Acinetobacter baumannii. The experiment in a line: Antibacterial activity against Acinetobacter baumanii assessed as inhibition of bacterial growth measured after 24 hrs by two-fold serial dilution method. The data set is classed as functional.
Data set [6] has as its system Staphylococcus aureus. The experiment in a line: Antibacterial activity against Staphylococcus aureus ATCC 29213 assessed as inhibition of bacterial growth measured after 24 hrs by two-fold serial dilution method. The data set is classed as functional.
The subject of data set [7] is Staphylococcus aureus. Nature of the data set: Antibacterial activity against Staphylococcus aureus assessed as inhibition of bacterial growth measured after 24 hrs by two-fold serial dilution method. The data set is classed as functional.
In the next data set the test system is Klebsiella pneumoniae. The experiment in a line: Antibacterial activity against Klebsiella pneumoniae assessed as inhibition of bacterial growth measured after 24 hrs by two-fold serial dilution method. The data set is classed as functional.
Data set [8] can be described thus: Haemolytic activity in human erythrocytes incubated for 2 hrs. The data set is classed as ADME, cell-based, Erythrocyte.
In a further data set the test system is Enterococcus faecalis. The experiment in a line: Antibacterial activity against Enterococcus faecalis assessed as inhibition of bacterial growth measured after 24 hrs by two-fold serial dilution method. The data set is classed as functional.
The subject of data set [9] is Escherichia coli. The experiment in a line: Antibacterial activity against Escherichia coli ATCC 25922 assessed as inhibition of bacterial growth measured after 24 hrs by two-fold serial dilution method. The data set is classed as functional.
For data set [10], the system named is Pseudomonas aeruginosa. Nature of the data set: Antibacterial activity against Pseudomonas aeruginosa assessed as drug resistance by measuring fold change in MIC treated for 16 serial passages and measured every 24 hrs. The data set is classed as functional.
The test system of data set [11] is Escherichia coli. The experiment in a line: Antibacterial activity against Escherichia coli assessed as drug resistance by measuring fold change in MIC treated for 16 serial passages and measured every 24 hrs. The data set is classed as functional.

≈ marks a conversion by molar mass, not a printed value. Where only a bound is given, the exact number is not on record here.

What is called MIC is the smallest concentration in the dilution series that meets the test's criterion for growth inhibition. In general, HC50 refers to the concentration giving 50% haemolysis. A higher HC50 goes with weaker haemolysis. In the case of `N#Cc1ccc(/C=C(/C(=O)c2nccs2)n2cnc3cc(Cl)ccc3c2=O)cc1`, the minimal inhibitory concentration (MIC) in the data set on Pseudomonas aeruginosa [1] came to 2 µg/mL (≈ 4.77 µM); in the data set on Escherichia coli [2], 16 µg/mL (≈ 38.2 µM); with Staphylococcus aureus [3], 4 µg/mL (≈ 9.55 µM); in the data set with Pseudomonas aeruginosa [4] it was 2 µg/mL (≈ 4.77 µM); with Staphylococcus aureus [5], 1 µg/mL (≈ 2.39 µM); in the data set with Acinetobacter baumannii, 512 µg/mL (≈ 1220 µM). Moreover, the MIC was 1 µg/mL (≈ 2.39 µM) with Staphylococcus aureus [6]; 32 µg/mL (≈ 76.4 µM) in the data set with Staphylococcus aureus [7]; 8 µg/mL (≈ 19.1 µM) in the data set with Klebsiella pneumoniae; 1 µg/mL (≈ 2.39 µM) with Enterococcus faecalis; 4 µg/mL (≈ 9.55 µM) with Escherichia coli [9]. The HC50 at 2 h in [8] was > 250 µg/mL.
With `CN(C)/C=C(/C(=O)c1nccs1)n1cnc2cc(Cl)ccc2c1=O`, the MIC turned out to be 16 µg/mL (≈ 44.3 µM) in the data set on Pseudomonas aeruginosa [1]; 512 µg/mL (≈ 1420 µM) with Escherichia coli [2]; 512 µg/mL (≈ 1420 µM) with Staphylococcus aureus [3]; 16 µg/mL (≈ 44.3 µM) in the data set with Pseudomonas aeruginosa [4]; 256 µg/mL (≈ 709 µM) in the data set on Staphylococcus aureus [5]; 128 µg/mL (≈ 355 µM) in the data set with Acinetobacter baumannii. Besides, the MIC in the data set on Staphylococcus aureus [6] was 512 µg/mL (≈ 1420 µM); in the data set on Staphylococcus aureus [7] it was 512 µg/mL (≈ 1420 µM); with Klebsiella pneumoniae it was 128 µg/mL (≈ 355 µM); with Enterococcus faecalis it was 128 µg/mL (≈ 355 µM); with Escherichia coli [9], 16 µg/mL (≈ 44.3 µM). In [8], the HC50 at 2 h was 204 µg/mL.
In the case of `Cc1ccc(/C=C(/C(=O)c2nccs2)n2cnc3cc(Cl)ccc3c2=O)c(C)c1`, the MIC in the data set on Pseudomonas aeruginosa [1] worked out at 64 µg/mL (≈ 152 µM); with Escherichia coli [2] it was 512 µg/mL (≈ 1210 µM); with Staphylococcus aureus [3], 512 µg/mL (≈ 1210 µM); with Pseudomonas aeruginosa [4], 64 µg/mL (≈ 152 µM); in the data set with Staphylococcus aureus [5] it was 512 µg/mL (≈ 1210 µM); in the data set with Acinetobacter baumannii, 128 µg/mL (≈ 303 µM). In addition, the MIC is 4 µg/mL (≈ 9.48 µM) in the data set with Staphylococcus aureus [6]; 512 µg/mL (≈ 1210 µM) in the data set with Staphylococcus aureus [7]; 512 µg/mL (≈ 1210 µM) in the data set with Klebsiella pneumoniae; 512 µg/mL (≈ 1210 µM) in the data set with Enterococcus faecalis; 64 µg/mL (≈ 152 µM) with Escherichia coli [9]. This compound also showed an HC50 at 2 h in data set [8] of 203 µg/mL.
As to `CCn1cc(C(=O)O)c(=O)c2cc(F)c(N3CCNCC3)cc21` [NORFLOXACIN], the “fold change (FC)” value in the data set with Pseudomonas aeruginosa [10] and with Escherichia coli [11] was 32 each time. Further, the MIC came to 0.5 µg/mL (≈ 1.57 µM) in the data set with Pseudomonas aeruginosa [1]; 4 µg/mL (≈ 12.5 µM) with Escherichia coli [2]; 8 µg/mL (≈ 25.1 µM) in the data set on Staphylococcus aureus [3]; 4 µg/mL (≈ 12.5 µM) in the data set on Pseudomonas aeruginosa [4]; 2 µg/mL (≈ 6.26 µM) in the data set with Staphylococcus aureus [5]; 2 µg/mL (≈ 6.26 µM) in the data set with Acinetobacter baumannii. For the same compound, the MIC worked out at 1 µg/mL (≈ 3.13 µM) in the data set on Staphylococcus aureus [6]; 4 µg/mL (≈ 12.5 µM) in the data set on Staphylococcus aureus [7]; 2 µg/mL (≈ 6.26 µM) with Klebsiella pneumoniae; 4 µg/mL (≈ 12.5 µM) in the data set on Enterococcus faecalis; 2 µg/mL (≈ 6.26 µM) in the data set with Escherichia coli [9].
As for `O=C(/C(=C/c1ccc(F)cc1F)n1cnc2cc(Cl)ccc2c1=O)c1nccs1`, the MIC in the data set on Pseudomonas aeruginosa [1] is 4 µg/mL (≈ 9.31 µM); in the data set on Escherichia coli [2] it was 8 µg/mL (≈ 18.6 µM); in the data set on Staphylococcus aureus [3], 8 µg/mL (≈ 18.6 µM); in the data set with Pseudomonas aeruginosa [4], 8 µg/mL (≈ 18.6 µM); in the data set with Staphylococcus aureus [5], 2 µg/mL (≈ 4.65 µM); with Acinetobacter baumannii, 2 µg/mL (≈ 4.65 µM). Also, the MIC in the data set on Staphylococcus aureus [6] was 8 µg/mL (≈ 18.6 µM); with Staphylococcus aureus [7], 8 µg/mL (≈ 18.6 µM); with Klebsiella pneumoniae, 8 µg/mL (≈ 18.6 µM); in the data set on Enterococcus faecalis, 8 µg/mL (≈ 18.6 µM); in the data set with Escherichia coli [9], 2 µg/mL (≈ 4.65 µM). In data set [8], this compound came in with an HC50 at 2 h of 203 µg/mL.
For `COc1ccc(/C=C(/C(=O)c2nccs2)n2cnc3cc(Cl)ccc3c2=O)cc1`, the MIC with Pseudomonas aeruginosa [1] was 32 µg/mL (≈ 75.5 µM); with Escherichia coli [2], 32 µg/mL (≈ 75.5 µM); with Staphylococcus aureus [3], 8 µg/mL (≈ 18.9 µM); in the data set on Pseudomonas aeruginosa [4] it was 32 µg/mL (≈ 75.5 µM); in the data set with Staphylococcus aureus [5] it was 4 µg/mL (≈ 9.44 µM); in the data set with Acinetobacter baumannii, 512 µg/mL (≈ 1210 µM). In addition, the MIC in the data set on Staphylococcus aureus [6] was found to be 4 µg/mL (≈ 9.44 µM); in the data set on Staphylococcus aureus [7] it was 64 µg/mL (≈ 151 µM); in the data set with Klebsiella pneumoniae, 512 µg/mL (≈ 1210 µM); in the data set on Enterococcus faecalis, 32 µg/mL (≈ 75.5 µM); with Escherichia coli [9] it was 32 µg/mL (≈ 75.5 µM). Moreover, the 50% haemolytic concentration (HC50) at 2 h in data set [8] worked out at 245 µg/mL.
